Biological target: T1, human recombinant P2X7 receptor (Homo sapiens, UniProt Q99572)
T1 construct: expressed in transfected cells
T1 sequence (Q99572 1-595): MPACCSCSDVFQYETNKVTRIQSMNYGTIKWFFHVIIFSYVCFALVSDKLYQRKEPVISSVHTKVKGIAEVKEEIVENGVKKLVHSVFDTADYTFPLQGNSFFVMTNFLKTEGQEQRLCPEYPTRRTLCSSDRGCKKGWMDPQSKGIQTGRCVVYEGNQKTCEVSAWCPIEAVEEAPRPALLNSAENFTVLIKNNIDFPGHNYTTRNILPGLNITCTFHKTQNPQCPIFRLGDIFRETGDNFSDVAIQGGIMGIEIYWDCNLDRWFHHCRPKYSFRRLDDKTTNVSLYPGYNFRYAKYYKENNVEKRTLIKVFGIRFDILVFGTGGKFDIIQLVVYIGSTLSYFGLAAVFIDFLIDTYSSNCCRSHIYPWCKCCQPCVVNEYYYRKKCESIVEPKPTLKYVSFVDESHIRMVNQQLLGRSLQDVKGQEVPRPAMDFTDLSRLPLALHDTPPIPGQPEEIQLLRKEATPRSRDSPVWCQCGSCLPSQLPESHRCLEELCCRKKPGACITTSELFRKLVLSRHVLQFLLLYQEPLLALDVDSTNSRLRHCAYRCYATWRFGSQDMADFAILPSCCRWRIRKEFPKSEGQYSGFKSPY
Assay: YO-PRO assay: P2X7 receptor antagonistic activity in HEK cells stably expressing P2X7
Type: cell-based
Conditions: antagonistic activity with respect to the P2X7 receptor, read-out: IC50
Experimental: The P2X7 receptor antagonistic activity of the compounds of formula (I) is determined in accordance with the following experimental method.
Cell Line Generation and YO-PRO Assay
Cell line generation was performed in general according to established molecular cloning protocols. Specifically, RNA was extracted from human whole blood using the Qiagen RNeasy kit (Qiagen, CH) according to the manufacturer's instructions. Subsequently cDNA was made (Superscript II, Invitrogen AG, CH) and the human P2X7 gene (genbank ref. BC011913) was amplified with the following primers: […] and […]. The amplified sequence was subsequently ligated into a pcDNA3.1 (+) NotI, NheI digested plasmid. Human embryonic kidney (HEK) cells (ATCC CRL—1573, Manassas, Va., USA) were transfected with the pcDNA3.1 (+).hP2X7 plasmid using lipofectamine 2000 (Invitrogen AG, CH) according to the manufacturer's instructions. Following a 24 h exposure to DNA, cells were trypsinized and re-seeded at low density in the presence of 250 μg Geneticin. Geneticin resistant cells were then selected during two consecutive rounds of cloning by serial limiting dilution with visual inspection. Individual clones were screened for P2X7 expression by applying ATP and recording the resultant uptake of YO-PRO1. Specific cell clones were chosen based on RNA and protein expression. HEK cells stably expressing P2X7 were used to screen drugs using the YO-PRO1 assay. Cells were grown to confluency in adherent culture at 37° C. in a humidified 5% CO2 incubator (split 1/5 every 3-4 days with DMEM, 10% FCS, 1% Penicillin/Streptomycin, 250 μg/ml Geneticin). Adherent cells were detached by incubation with Trypsine (1 ml per 165 cm^2 dish) for 2 minutes, then washed off with 10 ml PBS (without Mg^2+ and Ca^2+), and resuspended in DMEM, 10% FCS, 1% Penicillin/Streptomycin, no Geneticin. 10′000 cells per well (48 hours before the assay) or 25′000 cells per well (Vi-cell XR (Beckman Coulter) (24 hours before the assay) in 50 μl full medium were seeded on 384-well black-wall, clear bottom plates, that were coated before with 10 μl per well Poly-L-Lysine, incubated for 30-60 minutes at 37° C. and washed once with PBS. Medium was removed from cells and 50 μl of assay buffer containing 0.5 μM YO-PRO-1 was added into the wells. Solutions of antagonist compounds were prepared by serial dilutions of a 10 mM DMSO solution of the antagonist into PBS using a BioMek (Beckman Coulter). Each concentration was performed in duplicate. For IC50 measurements 10 concentration points were measured (10 μM being the highest concentration followed by 9 serial dilution steps 1/3). The cells were incubated with the antagonists of the present invention together with ATP at a final concentration of 250 μM for 90 minutes. During this time period, four time points were taken. Each time point comprised the average of several measurements made within a few seconds. Fluorescence was measured in the FLIPR tetra (Molecular Devices) using the filters appropriate for YO-PRO-1 fluorescence (excitation 485/20, emission 530/25). The FLIPR tetra was equipped with Molecular Devices Screen Works system control software to define and run experimental protocols. […] For IC50 measurements the maximum intensity is plotted against the concentration of compound to determine IC50 values.

Row | Structure (SMILES) | IC50 [nM]
1 | Cn1cc(C(CNC(=O)c2ccc3[nH]ccc3c2Cl)N2CCCCC2)cn1 (racemic) [Example 29, rac-4-Chloro-1H-indole-5-carboxylic acid [2-(1-methyl-1H-pyrazol-4-yl)-2-piperidin-1-yl-ethyl]-amide] | 161
2 | O=C(NCC(c1c(F)cc(F)cc1F)N1CCCCC1)c1ccc2[nH]ccc2c1Cl (racemic) [Example 30, rac-4-Chloro-1H-indole-5-carboxylic acid [2-piperidin-1-yl-2-(2,4,6-trifluoro-phenyl)-ethyl]-amide] | 1300
3 | O=C(NCC(c1ccc(F)cn1)N1CCCCC1)c1ccc2[nH]ccc2c1Cl (racemic) [Example 32, rac-4-Chloro-1H-indole-5-carboxylic acid [2-(5-fluoro-pyridin-2-yl)-2-piperidin-1-yl-ethyl]-amide] | 232
4 | O=C(NCC(c1c(F)cc(F)cc1F)N1CCOCC1)c1ccc2[nH]ccc2c1Cl (racemic) [Example 33, rac-4-Chloro-1H-indole-5-carboxylic acid [2-morpholin-4-yl-2-(2,4,6-trifluoro-phenyl)-ethyl]-amide] | 301
5 | O=C(NCC(c1ccc(F)cn1)N1CCOCC1)c1ccc2[nH]ccc2c1Cl (racemic) [Example 36, rac-4-Chloro-1H-indole-5-carboxylic acid [2-(5-fluoro-pyridin-2-yl)-2-morpholin-4-yl-ethyl]-amide] | 265
6 | O=C(NCC(c1ccc(Cl)cc1)N1CCOCC1)c1ccc2[nH]ccc2c1Cl (racemic) [Example 38, rac-4-Chloro-1H-indole-5-carboxylic acid [2-(4-chloro-phenyl)-2-morpholin-4-yl-ethyl]-amide] | 15
7 | O=C(NCC(c1cccc(F)c1)N1CCCCC1)c1ccc2[nH]ccc2c1Cl (racemic) [Example 43, rac-4-Chloro-1H-indole-5-carboxylic acid [2-(3-fluoro-phenyl)-2-piperidin-1-yl-ethyl]-amide] | 163
8 | O=C(NCC(c1ccc(C(F)(F)F)cc1)N1CCCCC1)c1ccc2[nH]ccc2c1Cl (racemic) [Example 44, rac-4-Chloro-1H-indole-5-carboxylic acid [2-piperidin-1-yl-2-(4-trifluoromethyl-phenyl)-ethyl]-amide] | 889
9 | O=C(NCC(c1ccc(F)c(F)c1)N1CCCCC1)c1ccc2[nH]ccc2c1Cl (racemic) [Example 45, rac-4-Chloro-1H-indole-5-carboxylic acid [2-(3,4-difluoro-phenyl)-2-piperidin-1-yl-ethyl]-amide] | 83
10 | Cc1noc(C)c1C(CNC(=O)c1ccc2[nH]ccc2c1Cl)N1CCOCC1 (racemic) [Example 53, rac-4-Chloro-1H-indole-5-carboxylic acid [2-(3,5-dimethyl-isoxazol-4-yl)-2-morpholin-4-yl-ethyl]-amide] | 1990

Further compounds by falling IC50, results first:

Row | IC50 [nM] | Structure (SMILES)
11 | 1850 | Cc1noc(C)c1C(CNC(=O)c1ccc2[nH]ccc2c1Cl)N1CCCCC1 (racemic) [Example 54, rac-4-Chloro-1H-indole-5-carboxylic acid [2-(3,5-dimethyl-isoxazol-4-yl)-2-piperidin-1-yl-ethyl]-amide]
12 | 774 | Cc1ccc(C(CNC(=O)c2ccc3[nH]ccc3c2Cl)N2CCCCC2)cc1 (racemic) [Example 55, rac-4-Chloro-1H-indole-5-carboxylic acid (2-piperidin-1-yl-2-p-tolyl-ethyl)-amide]
13 | 455 | O=C(NCC(c1ccc(Cl)cc1Cl)N1CCOCC1)c1ccc2[nH]ccc2c1Cl (racemic) [Example 39, rac-4-Chloro-1H-indole-5-carboxylic acid [2-(2,4-dichloro-phenyl)-2-morpholin-4-yl-ethyl]-amide]
14 | 251 | O=C(NCC(c1ccc(F)cc1F)N1CCCCC1)c1ccc2[nH]ccc2c1Cl (racemic) [Example 31, rac-4-Chloro-1H-indole-5-carboxylic acid [2-(2,4-difluoro-phenyl)-2-piperidin-1-yl-ethyl]-amide]
15 | 161 | O=C(NCC(c1ccccc1F)N1CCOCC1)c1ccc2[nH]ccc2c1Cl (racemic) [Example 35, rac-4-Chloro-1H-indole-5-carboxylic acid [2-(2-fluoro-phenyl)-2-morpholin-4-yl-ethyl]-amide]
16 | 134 | O=C(NCC(c1ccc(OC(F)(F)F)cc1)N1CCOCC1)c1ccc2[nH]ccc2c1Cl (racemic) [Example 48, rac-4-Chloro-1H-indole-5-carboxylic acid [2-morpholin-4-yl-2-(4-trifluoromethoxy-phenyl)-ethyl]-amide]
17 | 73 | O=C(NCC(c1ccc(Cl)cc1F)N1CCOCC1)c1ccc2[nH]ccc2c1Cl (racemic) [Example 40, rac-4-Chloro-1H-indole-5-carboxylic acid [2-(4-chloro-2-fluoro-phenyl)-2-morpholin-4-yl-ethyl]-amide]
18 | 61 | O=C(NCC(c1ccc(F)cc1F)N1CCOCC1)c1ccc2[nH]ccc2c1Cl (racemic) [Example 34, rac-4-Chloro-1H-indole-5-carboxylic acid [2-(2,4-difluoro-phenyl)-2-morpholin-4-yl-ethyl]-amide]
19 | 54 | Cc1ccc(C(CNC(=O)c2ccc3[nH]ccc3c2Cl)N2CCOCC2)cc1 (racemic) [Example 47, rac-4-Chloro-1H-indole-5-carboxylic acid (2-morpholin-4-yl-2-p-tolyl-ethyl)-amide]
20 | 39 | O=C(NCC(c1cccnc1)N1CCCCC1)c1ccc2[nH]ccc2c1Cl (racemic) [Example 46, rac-4-Chloro-1H-indole-5-carboxylic acid (2-piperidin-1-yl-2-pyridin-3-yl-ethyl)-amide]
21 | 34 | O=C(NCC(c1ccc(C(F)(F)F)cc1)N1CCOCC1)c1ccc2[nH]ccc2c1Cl (racemic) [Example 49, rac-4-Chloro-1H-indole-5-carboxylic acid [2-morpholin-4-yl-2-(4-trifluoromethyl-phenyl)-ethyl]-amide]
22 | 32 | O=C(NCC(c1cccc(F)c1)N1CCOCC1)c1ccc2[nH]ccc2c1Cl (racemic) [Example 37, rac-4-Chloro-1H-indole-5-carboxylic acid [2-(3-fluoro-phenyl)-2-morpholin-4-yl-ethyl]-amide]
23 | 32 | Cc1ncc(C(CNC(=O)c2ccc3[nH]ccc3c2Cl)OC2CCCC2)cn1 (racemic) [Example 52, rac-4-Chloro-1H-indole-5-carboxylic acid [2-cyclopentyloxy-2-(2-methyl-pyrimidin-5-yl)-ethyl]-amide]
24 | 16 | Cc1ncc(C(CNC(=O)c2ccc3[nH]ccc3c2Cl)C2CCOCC2)cn1 (racemic) [Example 51, rac-4-Chloro-1H-indole-5-carboxylic acid [2-(2-methyl-pyrimidin-5-yl)-2-(tetrahydro-pyran-4-yl)-ethyl]-amide]
25 | 13 | O=C(NCC(c1ccc(F)c(F)c1)N1CCOCC1)c1ccc2[nH]ccc2c1Cl (racemic) [Example 50, rac-4-Chloro-1H-indole-5-carboxylic acid [2-(3,4-difluoro-phenyl)-2-morpholin-4-yl-ethyl]-amide]
